From patent US20050146723A1, “Method for measuring surface plasmon resonance” (FUJI PHOTO FILM CO., LTD., priority 2003, published 2005)

Test system: trypsin
Assay: Evaluation of leupeptin-binding ability on trypsin-immobilized chip by surface plasmon resonance
Details: 10 min after initiation of replacement
Experimental: The solution in the above-describe dextran measurement chip was removed therefrom. Thereafter, 70 μl of a mixed solution consisting of 200 mM EDC (N-ethyl-N′-(3-dimethylaminopropyl)carbodiimide hydrochloride) and 50 mM NHS (N-hydroxysuccinimide) was added to the measurement chip, and it was then left for 10 minutes. The mixed solution was removed from the measurement chip, and the chip was then washed with 100 μl of water 3 times, and then with 100 μl of buffer 1 (100 mM HEPES (N-2-hydroxyethylpiperazin-N′-2-ethanesulfonic acid), 150 mM NaCl, 10 mM CaCl2) 3 times. The chip containing 100 μl of buffer 1 was installed in the surface plasmon resonance measurement device of the present invention. The inside of the chip was replaced with a trypsin solution (produced by dissolving trypsin in buffer 1 to a concentration of 1 mg/ml), and it was then left for 30 minutes, so as to immobilize trypsin. Thereafter, the inside of the chip was replaced with a 1 M ethanolamine solution, and it was then left for 10 minutes. Thereafter, the inside of the chip was washed with 100 μl of buffer 1 ten times. The amount of a change in resonance signals due to immobilization of trypsin was 2,000 RU.
With regard to the trypsin-immobilized chip of the present invention, the dielectric block was capped with silicon rubber, so as to produce a cell with an internal volume of 15 μl. In the case of such a block cell, the volume of the cell is determined with a space surrounded by the measurement chip and the cap. Two holes each having a diameter of 1 mm were formed through the silicon rubber used as a cap, and a Teflon tube having an inside diameter of 0.5 mm and an outside diameter of 1 mm was passed through each of these holes, so as to produce a flow channel. Likewise, a cap and a flow channel were produced for a reference chip. Thereafter, the two chips were connected in series, so as to produce a flow channel system. Each of the two chips in this flow channel system was installed in the surface plasmon resonance measurement device of the present invention.
The inside of the flow channel system was filled with buffer 2 (10 mM HEPES, 150 mM NaCl). Defining the state before the exchange of the liquid as a standard, a change in signals was measured at intervals of 0.5 seconds. The inside of the flow channel system was replaced with a leupeptin solution produced by dissolving leupeptin in buffer 2 to a concentration of 1 μg/ml) by each method described in Table 1. The level of noise generated on the reference chip side at 2 to 10 minutes after initiation of the replacement, and changes in signals on the trypsin-immobilized chip side and on the reference chip side at 10 minutes after initiation of the replacement, are shown in Table 1. In order to obtain binding detection data with high reliability, it is preferable that the width of noise level (the difference between the maximum and the minimum in a change in signals) be within 10 RU, and that the base line fluctuation, that is, the change in signals on the reference chip side be within 10 RU. More preferably, the above values are both within 5 RU.
The inside of the flow channel system was filled with buffer 2 (10 mM HBPES, 150 mM NaCl). Defining the state before the exchange of the liquid as a standard, a change in signals was measured at intervals of 0.5 seconds. The inside of the flow channel system was replaced with a leupeptin solution (produced by dissolving leupeptin in buffer 2 to a concentration of 1 μg ml) by each method described in Table 2. The level of noise generated on the reference chip side at 2 to 10 minutes after initiation of the replacement, and changes in signals on the trypsin-immobilized chip side and on the reference chip side at 10 minutes after initiation of the replacement, are shown in Table 2. […]

CC(=O)N[C@@H](CC(C)C)C(=O)N[C@@H](CC(C)C)C(=O)N[C@H](C=O)CCCNC(=N)N [leupeptin]
Signal change Immobilized chip (Table 1 method No. 1: leupeptin 1 μg/ml, flow 4 ml/min, exchange 0.125 min, termination 9.875 min, Ve/Vs 16.7): 19 RU | Signal change Immobilized chip (Table 1 method No. 2: leupeptin 1 μg/ml, flow 4 ml/min, exchange 0.25 min, termination 9.75 min, Ve/Vs 33.3): 21 RU | Signal change Immobilized chip (Table 1 method No. 3: leupeptin 1 μg/ml, flow 4 ml/min, exchange 1 min, termination 9 min, Ve/Vs 133.3): 20 RU | Signal change Immobilized chip (Table 1 method No. 4: leupeptin 1 μg/ml, flow 4 ml/min, exchange 1.5 min, termination 8.5 min, Ve/Vs 200.0): 21 RU | Signal change Immobilized chip (Table 1 method No. 5 (comparative): leupeptin 1 μg/ml, flow 4 ml/min, exchange 10 min, termination 0 min, Ve/Vs 1333.3): 12 RU | Signal change Immobilized chip (Table 1 method No. 6 (comparative): leupeptin 1 μg/ml, flow 2 ml/min, exchange 10 min, termination 0 min, Ve/Vs 666.7): 25 RU | Signal change Immobilized chip (Table 1 method No. 7 (comparative): leupeptin 1 μg/ml, flow 1 ml/min, exchange 10 min, termination 0 min, Ve/Vs 333.3): 18 RU | Signal change Immobilized chip (Table 1 method No. 8 (comparative): leupeptin 1 μg/ml, flow 0.5 ml/min, exchange 10 min, termination 0 min, Ve/Vs 166.7): 26 RU | Signal change Immobilized chip (Table 2 method No. 1: leupeptin 1 μg ml, flow 4 ml/min, exchange 0.125 min, termination 9.875 min, Ve/Vs 16.7): 19 RU | Signal change Immobilized chip (Table 2 method No. 2: leupeptin 1 μg ml, flow 4 ml/min, exchange 0.25 min, termination 9.75 min, Ve/Vs 33.3): 21 RU | Signal change Immobilized chip (Table 2 method No. 3 (comparative): leupeptin 1 μg ml, flow 4 ml/min, exchange 10 min, termination 0 min, Ve/Vs 1333.3): 12 RU | Signal change Immobilized chip (Table 2 method No. 4 (comparative): leupeptin 1 μg ml, flow 2 ml/min, exchange 10 min, termination 0 min, Ve/Vs 666.7): 25 RU | Signal change Immobilized chip (Table 2 method No. 5 (comparative): leupeptin 1 μg ml, flow 1 ml/min, exchange 10 min, termination 0 min, Ve/Vs 333.3): 18 RU | Signal change Immobilized chip (Table 2 method No. 6 (comparative): leupeptin 1 μg ml, flow 0.5 ml/min, exchange 10 min, termination 0 min, Ve/Vs 166.7): 26 RU | Signal change Immobilized chip (Table 2 method No. 7: leupeptin 1 μg ml, flow 0.2 ml/min, exchange 10 min, termination 0 min, Ve/Vs 66.7): 22 RU | Signal change Immobilized chip (Table 2 method No. 8: leupeptin 1 μg ml, flow 0.1 ml/min, exchange 10 min, termination 0 min, Ve/Vs 33.3): 20 RU
